Test results: patent publication US5128249A, “Stable sulpho-adenosyl-L-methionine (SAMe) salts, particularly suitable for oral pharmaceutical use” (Bioresearch S.p.a., priority 1984, dated 1992)

What was measured:
[1] = Absorption of SAMe salts in rats: areas under the SAMe plasmatic concentration curves (AUC); assay type: in vivo, Sprague Dawley male rats; conditions: 100 mg of active principle per kg, mean of 5 observations, extrapolated to infinity, 100 mg/kg; for AUC, intestinal administration: introduced into proximal jejunum; for AUC, oral administration: oral administration by gastric probe
Experimental: The absorption was studied on 110 Sprague Dawley male rats of weight 210 g which had fasted since the previous evening.
The products are administered in solution or in a 2% gum arabic aqueous suspension.
For each product, 5 rats are operated under ether anesthesia to allow the substance under examination to be introduced into the proximal jejunum. The wall incision is closed by ligature, and the animals sutured.
The product is administered to a further 5 animals orally by means of a gastric probe.
A blood sample is withdrawn from the caudal vein at the commencement and at 10, 20, 40, 60, 90, 120, 180 and 240 minutes after administration, and the SAMe concentration is determined on the sample by the modified method of Baldessarini and Kopin (J. Neurochem. 13: 769, 1966).
The plasmatic concentration values less the initial values are plotted against time and the areas under the time curves to infinity calculated by the trapezium and curve extrapolation method.
Areas under the SAMe plasmatic concentration curves (AUC) for rats treated intestinally and orally with the listed products at a dosage corresponding to 100 mg of active principle per kg of body weight. The values represent the mean of 5 observations.

[2] = Solubility in water and organic solvents; conditions: water

Structure (SMILES)	AUC, intestinal administration [1]	AUC, oral administration [1]	solubility [2]
C[S+](CC[C@H](N)C(=O)[O-])C[C@H]1O[C@@H](n2cnc3c(N)ncnc32)[C@H](O)[C@@H]1O (some centres unmarked) [DBS, SAMe tri dodecylbenzenesulphonate]	17000 N moles · ml^-1 × min	7800 N moles · ml^-1 × min	
C[S+](CC[C@H](N)C(=O)[O-])C[C@H]1O[C@@H](n2cnc3c(N)ncnc32)[C@H](O)[C@@H]1O (some centres unmarked) [Example S012, SAMe tri laurylsulphate]	20800 N moles · ml^-1 × min	8900 N moles · ml^-1 × min	
C[S+](CC[C@H](N)C(=O)[O-])C[C@H]1O[C@@H](n2cnc3c(N)ncnc32)[C@H](O)[C@@H]1O (some centres unmarked) [Example S5, SAMe tri pentanesulphonate, reference compound]	4900 N moles · ml^-1 × min	950 N moles · ml^-1 × min	
C[S+](CC[C@H](N)C(=O)[O-])C[C@H]1O[C@@H](n2cnc3c(N)ncnc32)[C@H](O)[C@@H]1O (some centres unmarked) [DSS, SAMe tri dioctylsulphosuccinate]	18500 N moles · ml^-1 × min	8000 N moles · ml^-1 × min	
C[S+](CC[C@H](N)C(=O)[O-])C[C@H]1O[C@@H](n2cnc3c(N)ncnc32)[C@H](O)[C@@H]1O (some centres unmarked) [Example S1, SAMe tri methanesulphonate, reference compound]	4400 N moles · ml^-1 × min	870 N moles · ml^-1 × min	
CCCCCCCCCCCCCCS(=O)(=O)[O-].[Na+]			10000 µg/mL
C[S+](CC[C@H](N)C(=O)[O-])C[C@H]1O[C@@H](n2cnc3c(N)ncnc32)[C@H](O)[C@@H]1O (some centres unmarked) [Example S12, SAMe tri dodecanesulphonate]	25500 N moles · ml^-1 × min	9700 N moles · ml^-1 × min	
C[S+](CC[C@H](N)C(=O)[O-])C[C@H]1O[C@@H](n2cnc3c(N)ncnc32)[C@H](O)[C@@H]1O (some centres unmarked) [SAMe SO4 -PTS, SAMe disulphatep-toluenesulphonate, reference compound]	6700 N moles · ml^-1 × min	990 N moles · ml^-1 × min	
C[S+](CC[C@H](N)C(=O)[O-])C[C@H]1O[C@@H](n2cnc3c(N)ncnc32)[C@H](O)[C@@H]1O (some centres unmarked) [Example S16, SAMe tri hexadecanesulphonate]	25300 N moles · ml^-1 × min	9600 N moles · ml^-1 × min	
C[S+](CC[C@H](N)C(=O)[O-])C[C@H]1O[C@@H](n2cnc3c(N)ncnc32)[C@H](O)[C@@H]1O (some centres unmarked) [Example S18, SAMe tri octadecanesulphonate]	24100 N moles · ml^-1 × min	9400 N moles · ml^-1 × min	
C[S+](CC[C@H](N)C(=O)[O-])C[C@H]1O[C@@H](n2cnc3c(N)ncnc32)[C@H](O)[C@@H]1O (some centres unmarked) [Example S6, SAMe tri hexanesulphonate, reference compound]	6900 N moles · ml^-1 × min	980 N moles · ml^-1 × min	
C[S+](CC[C@H](N)C(=O)[O-])C[C@H]1O[C@@H](n2cnc3c(N)ncnc32)[C@H](O)[C@@H]1O (some centres unmarked) [Example S14, SAMe tri tetradecanesulphonate]	26800 N moles · ml^-1 × min	9800 N moles · ml^-1 × min	
